Measured values from US7375124B2, “Use of α-phenylthiocarboxylic and α-phenyloxycarboxylic acids with serum-glucose-lowering and serum-lipid-lowering activity” (Sigma-Tau Industrie Farmaceutiche Riunite S.p.A., priority 2002, dated 2008).

Experiments:
mPPARαLBD/Gal4DBD = target: T1, mPPARαLBD/Gal4DBD (Mus musculus, UniProt P23204); assay: Transactivation assay mediated by mPPARαLBD/Gal4DBD in COS-7 cells (CAT reporter); type: cell-based
T1 construct: expressed in transfected cells; host or cells: COS-7 (monkey kidney fibroblasts)
T1 sequence (P23204 239-466 limits assumed): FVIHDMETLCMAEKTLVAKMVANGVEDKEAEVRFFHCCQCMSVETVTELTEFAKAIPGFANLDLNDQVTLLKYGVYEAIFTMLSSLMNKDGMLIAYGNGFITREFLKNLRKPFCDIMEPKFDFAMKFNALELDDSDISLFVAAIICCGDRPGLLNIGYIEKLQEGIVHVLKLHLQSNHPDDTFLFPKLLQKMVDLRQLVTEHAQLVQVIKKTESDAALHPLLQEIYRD
Excerpt: In this model a transactivation assay is used in which the expression vector mPPARαLBD/Gal4 DBD allows the synthesis by the transfected cell of a chimeric protein, in which the ligand binding domain (LBD) of PPARα is fused with the DNA binding domain (DBD) of the transcription factor GAL4 of yeast [Luckow B. et al., Nucleic Acids Res. 15, 5490 (1987)]. Simultaneously, a plasmid (pG5CAT) is transfected which contains 5 copies of the high-affinity binding site for GAL4 (also called UAS, upstream activating sequence), upstream of the viral promoter E1b fused with the CAT reporter gene [Moya-Camarena S. Y. et al., J. Lipid Res. 40 (8), 1426-33 (1999)]. This model eliminates interference by possible endogenous receptors.
This is due to the fact that the activation of E1b and the production of CAT will occur exclusively thanks to the interaction of GAL4 DBD with its own response element (UAS). Since the transcription factor GAL4 is not expressed in […] cells, transactivation of the reporter gene can take place only when, as a result of the interaction of a ligand with the LBD of PPARα, the chimeric protein PPARα/GAL4 recognises the UAS sequence on the plasmid pG5CAT. Together with the expression vector and the reporter vector the cells were also transfected with the plasmid pCH110 which provides the internal control for the efficiency of transfection and the normalisation of the results.
A monkey kidney fibroblast cell line (COS-7) was used [Elbrecht A. et al., J. Biol. Chem. 274 (12), 7913-22 (1999)]. The cells were co-transfected with the reporter vector, the expression plasmid coding for the fusion protein Gal4 DBD/PPARαLBD and the control vector pCH110. The cells were exposed to increasing concentrations of the study compounds and CAT activity was evaluated. Untreated cells were used as controls.
Monkey kidney fibroblasts (COS-7) were cultured according to the usual cell culture techniques, at 37° C. in a 5% v/v carbon dioxide atmosphere using as the growth medium DMEM (Dulbecco's modified Eagle's medium) modified with 3.7 g/l of sodium bicarbonate, 4 mM L-glutamine, 4.5 g/l of glucose, 1 mM sodium pyruvate and 10% v/v of foetal bovine serum, in the presence of streptomycin 100 μg/ml and penicillin 100 U/ml final.
The cells were co-transfected using the transfection reagent FuGENE6 (Roche), consisting of a defined mixture of lipids capable of complexing the DNA and of transporting it into the cells. Twenty-four hours prior to transfection the cells were plated at a density of 1.2×10^5 cells/well in 12-well plates and maintained at 37° C. in a 5% v/v CO2 atmosphere. […] Briefly, the transfection mixture containing 0.8 μg of the expression vector, 1.6 μg of the reporter vector, 0.8 μg of the control vector and 9 μl of the FuGENE6 reagent per well was added directly to the cells in the presence of culture medium devoid of serum. After 5 hours, the transfection medium was replaced by 1 ml of culture medium complete with serum and antibiotics in the presence or absence of the molecules to be tested at 3 different concentrations (2, 20 and 100 μM). Wy-14,643 (2 μM), a known ligand of PPARα, was used as the positive reference compound.
After 48 hours' incubation at 37° C. in a 5% v/v CO2 atmosphere, the cells were washed twice with 1 ml of phosphate buffer (PBS) and removed mechanically from the wells in TEN buffer (Tris[hydroxymethyl]aminomethane 10 mM pH 8, ethylenediamine-tetraacetic acid 1 mM pH 8, sodium chloride 0.1 M). After centrifuging for 3 minutes at 1000 rpm, the cells were resuspended in 65 μl of lysis buffer (Tris-HCl 0.25 M, pH 8) and then lysed thanks to three rapid freeze-thaw cycles. The insoluble cellular materials (debris) were removed by centrifuging at 15,000 rpm for 15 minutes at 4° C., and the supernatant was recovered and used for the CAT and β-galactosidase activity assays. […]

PPARγ = target: T2, PPARγ (Mus musculus, UniProt P37238); assay: Transactivation assay mediated by PPARγ in NIH-3T3 cells (CAT reporter); type: cell-based
T2 construct: expressed in transfected cells; host or cells: NIH-3T3 (mouse embryonal fibroblasts)
T2 sequence (P37238 1-475 isoform P37238-2): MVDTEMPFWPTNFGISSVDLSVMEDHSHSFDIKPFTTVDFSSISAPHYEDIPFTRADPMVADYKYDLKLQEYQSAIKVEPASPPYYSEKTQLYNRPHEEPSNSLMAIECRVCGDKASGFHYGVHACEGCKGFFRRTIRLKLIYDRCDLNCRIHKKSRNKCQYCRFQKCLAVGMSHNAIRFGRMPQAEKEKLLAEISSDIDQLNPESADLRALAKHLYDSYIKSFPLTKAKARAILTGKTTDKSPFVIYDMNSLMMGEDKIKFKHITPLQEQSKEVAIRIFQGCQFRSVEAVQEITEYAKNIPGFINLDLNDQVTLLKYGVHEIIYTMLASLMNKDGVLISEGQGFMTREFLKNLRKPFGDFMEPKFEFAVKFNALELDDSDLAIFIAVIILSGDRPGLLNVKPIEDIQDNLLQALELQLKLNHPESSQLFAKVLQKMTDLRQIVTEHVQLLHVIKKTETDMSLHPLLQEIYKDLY
Excerpt: A transactivation assay specific for PPARγ thus requires the simultaneous presence of the following in the preselected cell line: • a) a sufficient amount of PPARγ; • b) a sufficient amount of the 9 cis-retinoic acid receptor (RXR); • c) a chimeric plasmid containing the reporter gene controlled by a PPRE, located upstream of a viral heterologous promoter. In our case the reporter gene is chloramphenicol-acetyl transferase (CAT).
In the transactivation assay used, the preselected cells are transfected with the expression vector pSG5 Stop-mPPARg1 which allows the synthesis of the PPARγ receptor by the transfected cell. Simultaneously, a plasmid reporter (pBLCAT2-PPRE) is transfected which contains a peroxisome proliferator response element (PPRE) isolated by the gene promoter for acyl-CoA oxidase, upstream of the heterologous promoter of viral thymidine kinase (TK) fused with the reporter gene CAT. Since the endogenous cell levels of the RXR receptor are sufficiently high, it is not necessary to transfect an expression vector specific for RXR as well. […] Therefore, any increase in CAT levels will be the result of increased gene transcription dependent upon the dimerisation of PPARγ with RXR and upon the heterodimer bond formed with the peroxisome proliferator response element. Together with the expression vector and the reporter vector the cells are also transfected with the plasmid pCH110 which provides the internal control for the efficiency of transfection and the normalisation of the results
A cell line of mouse embryonal fibroblasts (NIH-3T3) was used [Hogan J. C. et al., Biochem Biophys Res Commun. 287 (2), 484-92 (2001)]. The cells were transfected with the reporter plasmid, the expression plasmid coding for the PPARγ receptor and the control vector pCH110. The cells were exposed to increasing concentrations of the study compounds and CAT activity was evaluated. Untreated cells were used as controls.
Mouse embryonal fibroblasts (NIH-3T3) were cultured according to the usual cell culture techniques, at 37° C. in a 5% v/v carbon dioxide atmosphere using as the growth medium DMEM (Dulbecco's modified Eagle's medium) modified with 3.7 g/l of sodium bicarbonate, 4 mM L-glutamine, 4.5 g/l of glucose, 1 mM sodium pyruvate and 10% v/v of calf serum, in the presence of streptomycin 100 μg/ml and penicillin 100 U/ml final.
The cells were co-transfected using the transfection reagent FuGENE6 (Roche), already described in the previous example. Twenty-four hours prior to transfection the cells were plated at a density of 8.0×10^4 cells/well in 12-well plates and maintained at 37° C. in a 5% v/v CO2 atmosphere. The culture medium, devoid of serum, was replaced 2 hours before transfection, and then the cells were treated with the transfection reagent FuGENE6, as described in the previous example. After 5 hours, the transfection medium was replaced by 1 ml of culture medium complete with serum and antibiotics in the presence or absence of the molecules to be tested at 3 different concentrations (2, 20 and 100 μM). Rosiglitazone, a known ligand of PPARγ, was used as the positive reference compound.
The cell protein extracts were prepared and the CAT activity assay was conducted exactly as described in the previous example.
As an internal control for the normalisation of the CAT activity in relation to the transfection efficiency, β-galactosidase activity coded for by the corresponding gene in the co-transfected plasmid pCH110 was used.
β-galatosidase activity was measured exactly as described in the previous example.
For the normalisation of the CAT assay results in relation to […] activity the formula described in the previous example was used.

SMILES: CC(C)(Sc1cccc(OCCc2ccc(Cl)cc2Cl)c1)C(=O)O [Example 13, 2-[3-(2-(2,4-dichlorophenyl)ethoxy)phenylthio]-2-methylpropanoic acid]
- Activation of reporter gene CAT as a percentage of the reference compound (WY-14,643 2 μM = 100%) (mPPARαLBD/Gal4DBD; 2 μM): 132.3%
- Activation of reporter gene CAT as a percentage of the reference compound (WY-14,643 2 μM = 100%) (mPPARαLBD/Gal4DBD; 20 μM): 199.3%
- Activation of reporter gene CAT as a percentage of the reference compound (WY-14,643 2 μM = 100%) (mPPARαLBD/Gal4DBD; 100 μM): 203.8%
- Activation of the gene-reporter CAT as a percentage of the reference compound (rosiglitazone 2 μM = 100%) (PPARγ; 2 μM): 61.6%
- Activation of the gene-reporter CAT as a percentage of the reference compound (rosiglitazone 2 μM = 100%) (PPARγ; 20 μM): 91.6%
- Activation of the gene-reporter CAT as a percentage of the reference compound (rosiglitazone 2 μM = 100%) (PPARγ; 100 μM): 101%

SMILES: CC(C)(Sc1cccc(OCCc2ccc3ccccc3c2)c1)C(=O)O [Example 18, 2-[3-[2-(2-naphthyl)ethoxy]phenylthio]-2-methylpropanoic acid]
- Activation of reporter gene CAT as a percentage of the reference compound (WY-14,643 2 μM = 100%) (mPPARαLBD/Gal4DBD; 2 μM): 85%
- Activation of reporter gene CAT as a percentage of the reference compound (WY-14,643 2 μM = 100%) (mPPARαLBD/Gal4DBD; 20 μM): 96.4%
- Activation of reporter gene CAT as a percentage of the reference compound (WY-14,643 2 μM = 100%) (mPPARαLBD/Gal4DBD; 100 μM): 151.9%
- Activation of the gene-reporter CAT as a percentage of the reference compound (rosiglitazone 2 μM = 100%) (PPARγ; 2 μM): 25%
- Activation of the gene-reporter CAT as a percentage of the reference compound (rosiglitazone 2 μM = 100%) (PPARγ; 20 μM): 67%
- Activation of the gene-reporter CAT as a percentage of the reference compound (rosiglitazone 2 μM = 100%) (PPARγ; 100 μM): 82.2%
